Laboratory results from ChEMBL document CHEMBL5465560, “Selectivity Literature for EUbOPEN Chemogenomic Library” (2024).

Legend:
[1] = target: T1, Myosin light chain kinase family member 4 (Homo sapiens) (UniProt Q86YV6); test: Selectivity interaction (KinomeScan (DiscoverX)) EUB0001049a MYLK4; details: at 1 µM
T1 sequence (whole entry): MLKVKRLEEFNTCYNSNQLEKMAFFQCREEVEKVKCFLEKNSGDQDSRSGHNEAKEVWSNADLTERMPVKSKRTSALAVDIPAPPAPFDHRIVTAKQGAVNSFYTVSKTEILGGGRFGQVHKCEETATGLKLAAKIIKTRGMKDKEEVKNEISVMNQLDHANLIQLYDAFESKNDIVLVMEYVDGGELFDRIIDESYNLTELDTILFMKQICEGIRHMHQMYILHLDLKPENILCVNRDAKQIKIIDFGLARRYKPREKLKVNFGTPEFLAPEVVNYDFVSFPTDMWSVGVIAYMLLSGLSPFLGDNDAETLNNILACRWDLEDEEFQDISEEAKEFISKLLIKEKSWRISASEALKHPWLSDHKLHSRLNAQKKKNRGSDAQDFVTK

[2] = target: Mitogen-activated protein kinase kinase kinase kinase 4 (Homo sapiens, UniProt O95819); test: Selectivity interaction (KinomeScan (DiscoverX)) EUB0001049a MAP4K4; details: at 1 µM
[3] = target: ALK tyrosine kinase receptor (Homo sapiens, UniProt Q9UM73); test: Selectivity interaction (Millipore kinase profiler) EUB0000124b ALK; details: at 10 µM
Sequence of ALK tyrosine kinase receptor (Q9UM73 19-1620 limits assumed): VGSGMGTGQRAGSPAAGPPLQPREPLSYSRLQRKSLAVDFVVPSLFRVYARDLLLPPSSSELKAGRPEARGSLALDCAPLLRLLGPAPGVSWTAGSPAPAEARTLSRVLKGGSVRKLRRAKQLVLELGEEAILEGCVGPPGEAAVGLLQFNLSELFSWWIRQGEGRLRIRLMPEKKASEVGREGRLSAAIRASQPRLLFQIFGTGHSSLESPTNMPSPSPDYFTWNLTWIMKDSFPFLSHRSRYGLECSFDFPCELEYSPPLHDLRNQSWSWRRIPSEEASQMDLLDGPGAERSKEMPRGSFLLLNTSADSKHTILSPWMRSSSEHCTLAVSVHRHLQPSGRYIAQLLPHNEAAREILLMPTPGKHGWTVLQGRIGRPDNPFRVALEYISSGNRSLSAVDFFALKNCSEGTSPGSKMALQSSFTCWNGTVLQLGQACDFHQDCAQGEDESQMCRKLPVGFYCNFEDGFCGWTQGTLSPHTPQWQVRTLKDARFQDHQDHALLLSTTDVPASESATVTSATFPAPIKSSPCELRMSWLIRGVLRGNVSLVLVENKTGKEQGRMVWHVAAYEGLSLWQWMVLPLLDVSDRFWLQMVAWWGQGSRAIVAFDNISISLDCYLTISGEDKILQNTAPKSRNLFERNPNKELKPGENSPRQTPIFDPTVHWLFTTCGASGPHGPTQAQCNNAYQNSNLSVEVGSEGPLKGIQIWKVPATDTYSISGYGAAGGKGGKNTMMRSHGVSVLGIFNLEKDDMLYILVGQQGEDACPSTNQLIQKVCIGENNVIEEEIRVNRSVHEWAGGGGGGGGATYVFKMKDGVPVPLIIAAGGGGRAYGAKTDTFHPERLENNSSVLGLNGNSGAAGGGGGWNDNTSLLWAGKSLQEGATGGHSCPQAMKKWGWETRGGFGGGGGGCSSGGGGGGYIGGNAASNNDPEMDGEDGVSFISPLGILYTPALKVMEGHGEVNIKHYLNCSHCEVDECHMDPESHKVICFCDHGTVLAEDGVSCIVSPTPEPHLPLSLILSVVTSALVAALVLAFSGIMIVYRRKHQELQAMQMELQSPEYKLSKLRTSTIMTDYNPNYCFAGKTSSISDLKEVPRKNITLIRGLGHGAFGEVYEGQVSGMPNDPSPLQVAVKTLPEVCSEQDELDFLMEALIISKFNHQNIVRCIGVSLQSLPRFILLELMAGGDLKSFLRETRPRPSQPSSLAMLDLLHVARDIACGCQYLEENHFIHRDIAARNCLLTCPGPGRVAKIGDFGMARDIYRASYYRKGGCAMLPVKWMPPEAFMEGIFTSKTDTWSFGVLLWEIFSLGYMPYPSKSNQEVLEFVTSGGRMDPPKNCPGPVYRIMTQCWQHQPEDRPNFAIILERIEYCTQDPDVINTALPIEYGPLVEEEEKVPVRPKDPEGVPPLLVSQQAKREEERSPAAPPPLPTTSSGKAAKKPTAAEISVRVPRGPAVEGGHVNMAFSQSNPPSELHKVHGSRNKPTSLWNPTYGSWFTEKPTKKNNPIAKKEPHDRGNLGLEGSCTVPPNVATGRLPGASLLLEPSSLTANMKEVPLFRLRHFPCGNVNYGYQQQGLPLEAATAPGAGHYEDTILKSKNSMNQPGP

[4] = target: T2, Tyrosine-protein kinase ITK/TSK (Homo sapiens) (UniProt Q08881); test: Selectivity interaction (KinomeScan (DiscoverX)) EUB0000666a ITK; details: at 10 µM
T2 sequence (whole entry): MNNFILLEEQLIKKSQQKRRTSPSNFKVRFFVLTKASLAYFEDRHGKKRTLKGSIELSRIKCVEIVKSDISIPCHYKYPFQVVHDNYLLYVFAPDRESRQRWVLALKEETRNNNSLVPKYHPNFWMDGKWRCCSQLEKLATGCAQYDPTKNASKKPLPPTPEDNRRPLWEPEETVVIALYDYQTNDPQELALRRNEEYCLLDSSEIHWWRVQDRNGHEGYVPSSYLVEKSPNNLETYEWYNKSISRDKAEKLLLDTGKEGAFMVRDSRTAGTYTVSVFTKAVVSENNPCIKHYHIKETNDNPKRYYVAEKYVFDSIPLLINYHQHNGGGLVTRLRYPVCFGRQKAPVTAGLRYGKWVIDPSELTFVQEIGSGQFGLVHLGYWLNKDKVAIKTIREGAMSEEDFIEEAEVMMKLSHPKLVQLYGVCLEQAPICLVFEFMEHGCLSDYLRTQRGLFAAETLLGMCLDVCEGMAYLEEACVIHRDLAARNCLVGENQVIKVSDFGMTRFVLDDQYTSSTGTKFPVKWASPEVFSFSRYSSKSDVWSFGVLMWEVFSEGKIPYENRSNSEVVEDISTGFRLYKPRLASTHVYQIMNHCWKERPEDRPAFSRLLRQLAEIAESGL

[5] = target: Serine/threonine-protein kinase Chk2 (Homo sapiens) (UniProt O96017); test: Selectivity interaction (KinomeScan (DiscoverX)) EUB0000229b CHEK2; details: at 10 µM
Sequence of Serine/threonine-protein kinase Chk2 (Homo sapiens) (O96017 whole entry): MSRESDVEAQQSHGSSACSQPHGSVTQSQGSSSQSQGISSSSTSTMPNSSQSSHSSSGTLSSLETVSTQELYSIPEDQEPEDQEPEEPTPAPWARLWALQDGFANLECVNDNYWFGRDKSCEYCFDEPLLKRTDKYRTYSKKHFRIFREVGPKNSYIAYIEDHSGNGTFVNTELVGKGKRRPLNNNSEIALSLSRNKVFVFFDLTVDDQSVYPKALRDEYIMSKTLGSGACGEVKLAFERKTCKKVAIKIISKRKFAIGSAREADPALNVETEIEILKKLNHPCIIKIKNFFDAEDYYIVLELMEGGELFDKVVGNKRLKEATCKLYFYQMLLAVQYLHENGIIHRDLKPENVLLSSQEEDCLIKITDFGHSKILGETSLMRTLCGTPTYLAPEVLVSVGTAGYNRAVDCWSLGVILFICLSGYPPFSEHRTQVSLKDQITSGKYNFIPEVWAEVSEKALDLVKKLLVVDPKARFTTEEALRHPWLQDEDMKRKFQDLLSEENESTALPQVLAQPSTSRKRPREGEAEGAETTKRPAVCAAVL

[6] = target: Tyrosine-protein kinase CSK (Homo sapiens) (UniProt P41240); test: Selectivity interaction (Kinase panel (KiNativ target engagement assay in Jurkat cells)) EUB0001635a CSK; format: cell-based; details: at 1 µM
Sequence of Tyrosine-protein kinase CSK (Homo sapiens) (P41240 2-450 limits assumed): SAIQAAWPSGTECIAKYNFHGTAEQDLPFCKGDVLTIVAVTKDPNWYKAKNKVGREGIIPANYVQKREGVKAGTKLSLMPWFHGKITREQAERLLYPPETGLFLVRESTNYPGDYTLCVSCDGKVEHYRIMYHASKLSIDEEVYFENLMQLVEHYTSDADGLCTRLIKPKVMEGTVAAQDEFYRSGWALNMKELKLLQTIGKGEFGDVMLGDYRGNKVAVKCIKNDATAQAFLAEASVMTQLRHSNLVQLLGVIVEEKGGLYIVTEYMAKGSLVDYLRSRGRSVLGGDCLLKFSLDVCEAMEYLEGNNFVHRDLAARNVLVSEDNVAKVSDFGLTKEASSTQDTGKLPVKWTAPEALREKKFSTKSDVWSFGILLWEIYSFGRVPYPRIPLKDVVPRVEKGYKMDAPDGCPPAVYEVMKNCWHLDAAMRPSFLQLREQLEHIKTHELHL

[7] = target: Bromodomain-containing protein 3 (Homo sapiens) (UniProt Q15059); test: Selectivity interaction (Bromodomain panel (DSF asssay)) EUB0000270b BRD3
Sequence of Bromodomain-containing protein 3 (Homo sapiens) (Q15059 2-726 limits assumed): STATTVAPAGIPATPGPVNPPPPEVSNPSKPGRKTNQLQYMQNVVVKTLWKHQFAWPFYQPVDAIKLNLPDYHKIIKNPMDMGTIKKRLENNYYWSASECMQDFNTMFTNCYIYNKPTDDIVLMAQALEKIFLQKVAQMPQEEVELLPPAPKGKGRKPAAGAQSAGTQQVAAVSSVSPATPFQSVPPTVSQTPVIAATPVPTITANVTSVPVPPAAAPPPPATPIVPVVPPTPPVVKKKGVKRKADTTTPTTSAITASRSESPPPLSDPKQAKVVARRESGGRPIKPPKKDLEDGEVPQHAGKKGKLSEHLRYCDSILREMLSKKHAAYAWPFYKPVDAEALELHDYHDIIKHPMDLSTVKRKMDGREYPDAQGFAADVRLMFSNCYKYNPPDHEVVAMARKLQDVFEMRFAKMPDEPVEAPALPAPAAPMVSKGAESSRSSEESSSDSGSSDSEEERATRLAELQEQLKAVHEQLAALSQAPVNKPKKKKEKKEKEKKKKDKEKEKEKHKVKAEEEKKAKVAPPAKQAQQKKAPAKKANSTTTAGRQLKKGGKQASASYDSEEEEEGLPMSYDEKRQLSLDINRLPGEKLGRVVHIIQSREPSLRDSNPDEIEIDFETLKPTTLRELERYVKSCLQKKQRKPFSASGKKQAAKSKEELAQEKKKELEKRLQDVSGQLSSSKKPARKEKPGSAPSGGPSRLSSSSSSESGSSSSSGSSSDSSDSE

[8] = target: Serine/threonine-protein kinase 38-like (Homo sapiens) (UniProt Q9Y2H1); test: Selectivity interaction (ActivX KiNativ screen (kinase selectivity in THP-1 cell lysates)) EUB0000639a STK38L; format: subcellular; details: lysate, at 5 µM
Sequence of Serine/threonine-protein kinase 38-like (Homo sapiens) (Q9Y2H1 2-464 limits assumed): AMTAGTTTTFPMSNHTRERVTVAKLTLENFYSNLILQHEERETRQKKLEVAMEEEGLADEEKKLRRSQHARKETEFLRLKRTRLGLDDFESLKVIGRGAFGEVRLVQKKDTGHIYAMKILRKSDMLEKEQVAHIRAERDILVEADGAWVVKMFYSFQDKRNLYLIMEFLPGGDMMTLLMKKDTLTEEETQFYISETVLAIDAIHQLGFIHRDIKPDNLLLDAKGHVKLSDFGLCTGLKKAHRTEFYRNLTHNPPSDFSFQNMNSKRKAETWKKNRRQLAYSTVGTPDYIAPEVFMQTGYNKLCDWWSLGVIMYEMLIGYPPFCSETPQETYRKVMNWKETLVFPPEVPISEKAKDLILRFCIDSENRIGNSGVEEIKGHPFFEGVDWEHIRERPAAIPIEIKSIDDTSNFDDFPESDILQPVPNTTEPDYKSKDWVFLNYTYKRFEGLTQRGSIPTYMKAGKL

[9] = tested on: Phosphatidylinositol 4,5-bisphosphate 3-kinase catalytic subunit alpha isoform (Homo sapiens), P42336 [E542K]; details: at 10 µM
[10] = target: Bone morphogenetic protein receptor type-1B (Homo sapiens, UniProt O00238); test: Selectivity interaction (Ambit KINOMEscan and KiNATiv profiling in Jurkat cells) EUB0000090b BMPR1B; format: cell-based; details: at 1 µM
[11] = target: Serine/threonine-protein kinase mTOR (Homo sapiens, UniProt P42345); test: Selectivity interaction (KinomeScan (DiscoverX)) EUB0001619a MTOR; details: at 1 µM
[12] = target: T3, Receptor-interacting serine/threonine-protein kinase 4 (Homo sapiens) (UniProt P57078); test: Selectivity interaction (KinomeScan (DiscoverX)) EUB0000695a RIPK4; details: at 100 nM
T3 sequence (whole entry): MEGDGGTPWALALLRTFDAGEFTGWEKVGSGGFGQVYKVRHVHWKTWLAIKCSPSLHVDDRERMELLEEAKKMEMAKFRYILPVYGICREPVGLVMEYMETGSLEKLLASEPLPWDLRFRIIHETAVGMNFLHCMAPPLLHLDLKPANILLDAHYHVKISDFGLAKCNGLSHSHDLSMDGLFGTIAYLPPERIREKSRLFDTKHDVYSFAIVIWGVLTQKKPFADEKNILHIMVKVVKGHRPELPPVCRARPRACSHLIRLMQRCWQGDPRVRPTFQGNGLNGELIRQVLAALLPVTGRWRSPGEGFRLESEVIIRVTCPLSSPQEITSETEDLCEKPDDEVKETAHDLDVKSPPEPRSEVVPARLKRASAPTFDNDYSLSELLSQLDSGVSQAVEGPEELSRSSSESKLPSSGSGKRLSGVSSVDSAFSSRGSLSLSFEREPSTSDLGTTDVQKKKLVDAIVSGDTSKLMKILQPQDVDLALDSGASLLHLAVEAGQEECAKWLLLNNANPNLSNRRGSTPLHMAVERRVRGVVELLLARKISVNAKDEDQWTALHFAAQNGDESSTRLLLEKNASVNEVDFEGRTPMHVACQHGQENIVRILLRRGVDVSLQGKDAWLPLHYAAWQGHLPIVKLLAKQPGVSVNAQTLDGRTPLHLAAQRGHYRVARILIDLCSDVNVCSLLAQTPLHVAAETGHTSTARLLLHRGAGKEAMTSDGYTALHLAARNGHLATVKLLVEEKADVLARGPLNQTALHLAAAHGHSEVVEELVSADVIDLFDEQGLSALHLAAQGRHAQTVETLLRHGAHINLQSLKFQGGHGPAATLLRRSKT

[13] = target: Phosphatidylinositol 3-kinase catalytic subunit type 3 (Homo sapiens, UniProt Q8NEB9); test: Selectivity interaction (ProQinase) EUB0000171b PIK3C3
Sequence of Phosphatidylinositol 3-kinase catalytic subunit type 3 (Q8NEB9 whole entry): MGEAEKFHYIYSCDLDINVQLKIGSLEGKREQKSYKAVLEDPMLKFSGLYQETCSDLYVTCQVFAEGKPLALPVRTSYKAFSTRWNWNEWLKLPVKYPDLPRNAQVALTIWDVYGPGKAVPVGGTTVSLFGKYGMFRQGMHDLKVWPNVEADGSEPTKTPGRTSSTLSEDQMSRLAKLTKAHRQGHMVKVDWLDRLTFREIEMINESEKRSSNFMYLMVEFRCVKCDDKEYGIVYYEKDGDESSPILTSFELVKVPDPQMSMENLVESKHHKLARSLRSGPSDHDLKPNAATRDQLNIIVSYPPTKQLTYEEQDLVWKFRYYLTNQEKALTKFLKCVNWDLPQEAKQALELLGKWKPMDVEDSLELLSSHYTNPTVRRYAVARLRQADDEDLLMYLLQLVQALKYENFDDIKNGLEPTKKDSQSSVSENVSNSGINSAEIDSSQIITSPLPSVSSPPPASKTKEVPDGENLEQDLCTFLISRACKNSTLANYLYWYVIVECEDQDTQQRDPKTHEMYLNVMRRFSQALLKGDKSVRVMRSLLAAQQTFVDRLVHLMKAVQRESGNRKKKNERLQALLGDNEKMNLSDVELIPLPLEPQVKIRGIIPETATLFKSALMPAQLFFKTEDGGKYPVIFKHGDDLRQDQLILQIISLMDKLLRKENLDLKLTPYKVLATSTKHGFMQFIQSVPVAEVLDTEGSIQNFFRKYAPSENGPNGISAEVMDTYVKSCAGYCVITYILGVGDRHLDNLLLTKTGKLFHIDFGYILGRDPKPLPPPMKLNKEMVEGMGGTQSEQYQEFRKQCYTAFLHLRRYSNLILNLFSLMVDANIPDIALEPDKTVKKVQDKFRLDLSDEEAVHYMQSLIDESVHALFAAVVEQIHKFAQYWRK

With `COc1cc(Nc2nc(C)cc(-c3cnn4nc(OC)ccc34)n2)cc(C(F)(F)F)c1` the % of control [1] was 100% and the % of control [2] was 99%.

Work on `CC(=O)Nc1cccc(-n2c(=O)n(C3CC3)c(=O)c3c(Nc4ccc(I)cc4F)n(C)c(=O)c(C)c32)c1` yielded a % of control [3] of 166%.

`O=C(NOC[C@H](O)CO)c1ccc(F)c(F)c1Nc1ccc(I)cc1F` gave a % of control [4] of 97%.

In the case of `COc1cc(N(C)c2ccnc3ccc(C(F)(F)F)cc23)cc(OC)c1OC`, the % binding [5] is reported as 74%.

`C=CC(=O)Nc1ccc(C(=O)Nc2[nH]nc3c2CN(C(=O)N[C@H](CN(C)C)c2ccccc2)C3(C)C)cc1` was tested, and the % of engagement ([6]; Selectivity number of off-targets 0.0, Selectivity number of targets 233.0, Source Knowledge https://www.sciencedirect.com/science/article/pii/S2451945619300674?via%3Dihub) was -7.9% and the % of engagement [6] was -8.1%.

`Cc1cc(CN)cc(C)c1-c1ncn(C)c1-c1cncn1C` was tested, and the dTM [7] was -1.78 K.

`CC[C@@H]1[C@H](F)C(=O)N[C@@H]1COc1nccc2cc(C(N)=O)c(OC)cc12` [ZIMLOVISERTIB] was tested, and the % of inhibition [8] was 77.4%.

`COCC(=O)NC/C=C/c1ccc2ncnc(Nc3ccc(Oc4ccc(C)nc4)c(C)c3)c2c1` [CP-724714] gave a % of control [9] of 100%.

Compound `CN(C)C/C=C/C(=O)Nc1ccc(C(=O)N2CCCC(Nc3ncc(Cl)c(-c4c[nH]c5ccccc45)n3)C2)cc1` (stereo not given) has a % of control [10] of 91%.

Compound `N#Cc1cccc(-c2c[nH]c3ncnc(N4CCOCC4)c23)c1` has a % of control [11] of 58%.

Work on `Cc1cc(F)c(C(=O)Nc2cccc(-c3nncn3C(C)C)n2)cc1-n1cnc(C2CC2)c1` yielded a % of control [12] of 100%.

With `C=CC(=O)Nc1cccc(C(=O)Nc2ccc(Nc3cc(-c4[nH]c(SC)nc4C)ccn3)cc2)c1` the % of control ([13]; at 1 µM) was 108% and the % of control ([13]; at 5 µM) was 103%.
